# According to PMC8570541, “Real-time observation of tetrapyrrole binding to an engineered bacterial phytochrome” (Communications Chemistry, 2021):
# Tests used:
# miRFP709 = target: T1, miRFP709 (Rhodopseudomonas palustris, UniProt A0A161I5N6); assay: time-resolved absorption and stimulated Raman spectroscopy; assay type: binding; conditions: covalent; thioether to Cys in PAS; pH 8.0, 20 mM Tris-HCl, 150 mM NaCl, DTT
# T1 construct: engineered monomeric PAS-GAF fragment derived from RpBphP1; Cys in PAS only, none in GAF; about 35 kDa; N-terminal polyhistidine tag; apoprotein expressed in E. coli LMG194 without heme oxygenase
# Source text: time-resolved absorption and stimulated Raman spectroscopy on miRFP709 | We assign the 18-min reaction to the covalent bond formation to Cys in the PAS
# miRFP670 = target: T2, miRFP670 (Rhodopseudomonas palustris, UniProt A0A161I5N6, D200T/I252C, form not given); assay: time-resolved absorption and stimulated Raman spectroscopy, SDS-PAGE; assay type: binding; conditions: covalent; Cys253 GAF thioether, then a second thioether to Cys20 PAS; pH 8.0, 20 mM Tris-HCl, 150 mM NaCl, DTT
# T2 construct: engineered monomeric PAS-GAF fragment derived from RpBphP1; Cys20 (PAS) and Cys253 (GAF); about 35 kDa; N-terminal polyhistidine tag; apoprotein expressed in E. coli LMG194 without heme oxygenase
# T2 sequence (A0A161I5N6 1-314 D200T/I252C limits assumed): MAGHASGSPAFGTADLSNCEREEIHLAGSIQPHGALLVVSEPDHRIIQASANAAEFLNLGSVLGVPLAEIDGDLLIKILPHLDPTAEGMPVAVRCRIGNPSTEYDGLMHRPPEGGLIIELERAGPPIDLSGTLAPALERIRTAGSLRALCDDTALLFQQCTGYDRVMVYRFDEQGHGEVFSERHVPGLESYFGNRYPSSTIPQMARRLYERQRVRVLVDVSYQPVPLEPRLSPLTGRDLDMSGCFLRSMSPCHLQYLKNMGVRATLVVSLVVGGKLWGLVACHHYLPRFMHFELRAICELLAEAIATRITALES
# T1 sequence (A0A161I5N6 1-314 limits assumed): as the sequence (A0A161I5N6 1-314 D200T/I252C limits assumed) above, with T200D, C252I counted along it
structure (smiles),measurement,setting,value
C=CC1=C(C)C(=Cc2[nH]c(C=C3N=C(C=C4NC(=O)C(C)=C4C=C)C(C)=C3CCC(=O)O)c(CCC(=O)O)c2C)NC1=O [biliverdin],time constant of C-S bond formation (Cys in PAS),miRFP709,18 min
same,time constant of C-S bond formation (Cys in GAF),miRFP670,4.3 min
